Earlier results as cited in patent publication US20070203190A1, “Hydroxylamines and derivatives for the inhibition of complement activation” (priority 2006, published 2007).

B1: CD59: blocks assembly of the MAC; proposed as a potential therapeutic agent (protein, UniProt P13987 26-102, looked up)
CD59 glycoprotein: LQCYNCPNPTADCKTAVNCSSDFDACLITKAGLQVYNKCWKFEHCNFNDVTTRLRENELTYYCCKKDLCNFNEQLEN

Experiments:
complement activation = conditions: in vivo animal models

Row | Molecule | suppression of complement activation (complement activation) | activity in vitro (MAC)
1 | sCR1: a recombinant form of complement receptor 1 known as soluble complement receptor 1 | suppress complement activation | –
2 | B1 | – | limited activity
